Measurements: patent US20230114728A1 (Venatorx Pharmaceuticals, Inc., priority 2019, published 2023)
In brackets after ≈: the same amount, converted by molar mass. Like-named read-outs stand apart in the source and are kept apart here.

Key:
Assay type in all cases: cell-based
N. gonorrhoeae WHO K = assay: Liquid broth MIC in Fastidious broth; details: Neisseria gonorrhoeae
How it was run: (§1)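 Strains bearing mosaic PBP2 grown 24 h on chocolate agar (36° C, 5% CO2), suspended in saline and added to 2-fold compound dilutions in Fastidious broth at 5×10^5 CFU/mL. After ~24 hours at 36° C with 5% CO2, MIC taken visually as lowest well with <10% growth relative to full growth.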

[1] = system: N. gonorrhoeae ATCC 49226; assay: Liquid broth MIC in Fastidious broth; details: Neisseria gonorrhoeae, ATCC49226, Fastidious broth
How it was run: (§2)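 Colonies were swabbed from chocolate agar after 24 h growth and standardised by optical density at 600 nm. Compounds were serially diluted twofold in Fastidious broth, and bacteria added to give 5×10^5 CFU/mL. After about 24 h at 36 °C in 5% CO2, the lowest concentration allowing under 10% growth was taken as MIC.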

N. gonorrhoeae FA1090 = assay: Liquid broth MIC in Fastidious broth; details: Neisseria gonorrhoeae, Fastidious broth
How it was run: as §2

N. gonorrhoeae WHO G = assay: Liquid broth MIC in Fastidious broth; details: Neisseria gonorrhoeae, Fastidious broth
How it was run: as §2

N. gonorrhoeae WHO Q = assay: Liquid broth MIC in Fastidious broth; details: Neisseria gonorrhoeae
How it was run: as §1

N. gonorrhoeae WHO L = assay: Liquid broth MIC in Fastidious broth; details: Neisseria gonorrhoeae, Fastidious broth
How it was run: as §2

N. gonorrhoeae WHO Z = assay: Liquid broth MIC in Fastidious broth; details: Neisseria gonorrhoeae
How it was run: as §1

N. gonorrhoeae H041 = assay: Liquid broth MIC in Fastidious broth; details: Neisseria gonorrhoeae
How it was run: as §1

[2] = system: K. pneumoniae SI-117 producing VIM-1; assay: Broth microdilution MIC in CAMHB; details: Klebsiella pneumoniae, read-out: Minimum Inhibitory Concentration, K. pneumoniae SI-117
How it was run: (§3)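 Hyper-permeable or efflux-deficient strains serve to probe outer-membrane penetration. Growth inhibition is scored visually after 16-20 h at 37° C in CAMHB, starting from 2-8×10^5 CFU/mL.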

E. coli 901C = assay: Broth microdilution MIC in CAMHB; details: Escherichia coli; E. coli 901C (hyper-permeable); MHB; read-out: Minimum Inhibitory Concentration, E. coli 901C
How it was run: as §3

P. aeruginosa ATCC 35151 = assay: Broth microdilution MIC in CAMHB; details: Pseudomonas aeruginosa, ATCC35151; MHB; hyper-permeable strain; read-out: Minimum Inhibitory Concentration, P. aeruginosa ATCC 35151
How it was run: as §3

A. baumannii ATCC 19606 = assay: Broth microdilution MIC in CAMHB; details: Acinetobacter baumannii, ATCC19606; MHB; read-out: Minimum Inhibitory Concentration, A. baumannii ATCC 19606
How it was run: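 Lowest compound concentration with no visible growth after 16-20 h at 37 °C defines MIC. Plates of 2-fold serial dilutions in cation-adjusted Mueller Hinton broth received 2-8×10^5 CFU/mL of exponentially grown cells, per CLSI methods; panel spans reference, hyper-permeable and efflux-pump-deleted strains.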

[3] = read-out: Minimum Inhibitory Concentration, N. gonorrhoeae WHO K
[4] = N. gonorrhoeae strain ATCC 49226, read-out: Minimum Inhibitory Concentration, N. gonorrhoeae ATCC 49226
[5] = N. gonorrhoeae strain FA1090, read-out: Minimum Inhibitory Concentration, N. gonorrhoeae FA1090
[6] = N. gonorrhoeae strain WHO G, read-out: Minimum Inhibitory Concentration, N. gonorrhoeae WHO G
[7] = N. gonorrhoeae strain WHO L, read-out: Minimum Inhibitory Concentration, N. gonorrhoeae WHO L
[8] = H041, read-out: Minimum Inhibitory Concentration, N. gonorrhoeae H041
[9] = read-out: Minimum Inhibitory Concentration, N. gonorrhoeae WHO Q
[10] = read-out: Minimum Inhibitory Concentration, N. gonorrhoeae WHO Z

Structure (SMILES)	MIC [2]	MIC (E. coli 901C)	MIC (N. gonorrhoeae WHO K; [3])	MIC [1, 4]	MIC (N. gonorrhoeae FA1090; [5])	MIC (N. gonorrhoeae WHO G; [6])	MIC (N. gonorrhoeae WHO L; [7])	MIC (N. gonorrhoeae H041; [8])	further results
CCN1CCN(C(=O)N[C@@H](C(=O)N[C@H]2Cc3ccc(F)c(C(=O)O)c3OB2O)c2c(Cl)cc(O)c(O)c2F)C(=O)C1=O (single isomer, unassigned) [Example 207]	–	–	–	–	–	–	–	–	MIC (N. gonorrhoeae WHO K; read-out: Minimum Inhibitory Concentration, WHO K): > 64 µg/mL; MIC ([1]; N. gonorrhoeae ATCC 49226, read-out: Minimum Inhibitory Concentration, ATCC 49226): 16 to 32 µg/mL (≈ 26.2 to 52.4 µM); MIC (N. gonorrhoeae FA1090; N. gonorrhoeae FA1090, read-out: Minimum Inhibitory Concentration, FA1090): 4 to 8 µg/mL (≈ 6.55 to 13.1 µM); MIC (N. gonorrhoeae WHO G; N. gonorrhoeae WHO G, read-out: Minimum Inhibitory Concentration, WHO G): 16 to 32 µg/mL (≈ 26.2 to 52.4 µM); MIC (N. gonorrhoeae WHO Q; read-out: Minimum Inhibitory Concentration, WHO Q): > 64 µg/mL; MIC (N. gonorrhoeae WHO L; N. gonorrhoeae WHO L, read-out: Minimum Inhibitory Concentration, WHO L): > 64 µg/mL; MIC (N. gonorrhoeae WHO Z; read-out: Minimum Inhibitory Concentration, WHO Z): 16 to 32 µg/mL (≈ 26.2 to 52.4 µM); MIC (N. gonorrhoeae H041; H041, read-out: Minimum Inhibitory Concentration, H041): > 64 µg/mL
O=C(NCCCN1CCN(C(=O)NC(C(=O)N[C@H]2Cc3cccc(C(=O)O)c3OB2O)c2ncc(O)cc2F)C(=O)C1=O)c1ccc(O)c(O)c1Cl (stereo partly drawn) [Example 1, (3R)-3-(2-(4-(3-(2-chloro-3,4-dihydroxybenzamido)propyl)-2,3-dioxopiperazine-1-carboxamido)-2-(3-fluoro-5-hydroxypyridin-2-yl)acetamido)-2-hydroxy-3,4-dihydro-2H-benzo[e][1,2]oxaborinine-8-carboxylic acid]	32 to 64 µg/mL (≈ 43.1 to 86.2 µM)	8 to 16 µg/mL (≈ 10.8 to 21.5 µM)	–	–	–	–	–	–	–
C[C@H]1CN(CCNC(=O)c2ccc(O)c(O)c2Cl)C(=O)C(=O)N1C(=O)NC(C(=O)N[C@H]1Cc2cccc(C(=O)O)c2OB1O)c1ncc(O)cc1F (stereo partly drawn) [Example 2, (3R)-3-(2-((S)-4-(2-(2-chloro-3,4-dihydroxybenzamido)ethyl)-6-methyl-2,3-dioxopiperazine-1-carboxamido)-2-(3-fluoro-5-hydroxypyridin-2-yl)acetamido)-2-hydroxy-3,4-dihydro-2H-benzo[e][1,2]oxaborinine-8-carboxylic acid]	8 to 16 µg/mL (≈ 10.8 to 21.5 µM)	0.5 to 1 µg/mL (≈ 0.673 to 1.35 µM)	> 64 µg/mL	> 64 µg/mL	4 to 8 µg/mL (≈ 5.38 to 10.8 µM)	> 64 µg/mL	> 64 µg/mL	> 64 µg/mL	–
O=C(NCCCN1CCN(C(=O)NC(C(=O)N[C@H]2Cc3ccc(F)c(C(=O)O)c3OB2O)c2ncc(O)cc2F)C(=O)C1=O)c1ccc(O)c(O)c1Cl (stereo partly drawn) [Example 3, (3R)-3-(2-(4-(3-(2-chloro-3,4-dihydroxybenzamido)propyl)-2,3-dioxopiperazine-1-carboxamido)-2-(3-fluoro-5-hydroxypyridin-2-yl)acetamido)-7-fluoro-2-hydroxy-3,4-dihydro-2H-benzo[e][1,2]oxaborinine-8-carboxylic acid]	> 128 µg/mL	8 to 16 µg/mL (≈ 10.5 to 21 µM)	–	–	–	–	–	–	–
Nc1nc(C(NC(=O)N2CCN(CCNC(=O)c3ccc(O)c(O)c3Cl)C(=O)C2=O)C(=O)N[C@H]2Cc3ccc(F)c(C(=O)O)c3OB2O)c(F)s1 (stereo partly drawn) [Example 4, (3R)-3-(2-(2-amino-5-fluorothiazol-4-yl)-2-(4-(2-(2-chloro-3,4-dihydroxybenzamido)ethyl)-2,3-dioxopiperazine-1-carboxamido)acetamido)-7-fluoro-2-hydroxy-3,4-dihydro-2H-benzo[e][1,2]oxaborinine-8-carboxylic acid]	–	–	> 64 µg/mL	16 to 32 µg/mL (≈ 21.3 to 42.6 µM)	4 to 8 µg/mL (≈ 5.32 to 10.6 µM)	4 to 8 µg/mL (≈ 5.32 to 10.6 µM)	> 64 µg/mL	> 64 µg/mL	–
O=C(NCCN1CCN(C(=O)NC(C(=O)N[C@H]2Cc3ccc(F)c(C(=O)O)c3OB2O)c2ncc(O)cc2F)C(=O)C1=O)c1c(F)cc(O)c(O)c1Cl (stereo partly drawn) [Example 5, (3R)-3-(2-(4-(2-(2-chloro-6-fluoro-3,4-dihydroxybenzamido)ethyl)-2,3-dioxopiperazine-1-carboxamido)-2-(3-fluoro-5-hydroxypyridin-2-yl)acetamido)-7-fluoro-2-hydroxy-3,4-dihydro-2H-benzo[e][1,2]oxaborinine-8-carboxylic acid]	–	–	> 64 µg/mL	> 64 µg/mL	4 to 8 µg/mL (≈ 5.23 to 10.5 µM)	16 to 32 µg/mL (≈ 20.9 to 41.8 µM)	> 64 µg/mL	> 64 µg/mL	–
Nc1nc(/C(=N/OC[C@H](NC(=O)c2ccc(O)c(O)c2Cl)C(=O)O)C(=O)N[C@H]2Cc3cccc(C(=O)O)c3OB2O)cs1 [Example 6, (R)-3-((Z)-2-(2-aminothiazol-4-yl)-2-(((S)-2-carboxy-2-(2-chloro-3,4-dihydroxybenzamido)ethoxy)imino)acetamido)-2-hydroxy-3,4-dihydro-2H-benzo[e][1,2]oxaborinine-8-carboxylic acid]	–	–	> 64 µg/mL	> 64 µg/mL	16 to 32 µg/mL (≈ 25.2 to 50.5 µM)	16 to 32 µg/mL (≈ 25.2 to 50.5 µM)	> 64 µg/mL	> 64 µg/mL	–
CCN1CCN(C(=O)NC(C(=O)N[C@H]2Cc3ccc(F)c(C(=O)O)c3OB2O)c2ncc(C(=O)O)cc2F)C(=O)C1=O (stereo partly drawn) [Example 33, 6-(2-(((R)-8-carboxy-7-fluoro-2-hydroxy-3,4-dihydro-2H-benzo[e][1,2]oxaborinin-3-yl)amino)-1-(4-ethyl-2,3-dioxopiperazine-1-carboxamido)-2-oxoethyl)-5-fluoronicotinic acid]	> 128 µg/mL	2 to 4 µg/mL (≈ 3.39 to 6.79 µM)	> 64 µg/mL	16 to 32 µg/mL (≈ 27.2 to 54.3 µM)	4 to 8 µg/mL (≈ 6.79 to 13.6 µM)	16 to 32 µg/mL (≈ 27.2 to 54.3 µM)	> 64 µg/mL	> 64 µg/mL	MIC (P. aeruginosa ATCC 35151): 0.5 to 1 µg/mL (≈ 0.849 to 1.7 µM); MIC (A. baumannii ATCC 19606): > 128 µg/mL
NCCCN1CCN(C(=O)N[C@@H](C(=O)N[C@H]2Cc3cc(Cl)c(F)c(C(=O)O)c3OB2O)c2c(F)cc(O)c(O)c2Cl)C(=O)C1=O [Example 190, (R)-3-((R)-2-(4-(3-aminopropyl)-2,3-dioxopiperazine-1-carboxamido)-2-(2-chloro-6-fluoro-3,4-dihydroxyphenyl)acetamido)-6-chloro-7-fluoro-2-hydroxy-3,4-dihydro-2H-benzo[e][1,2]oxaborinine-8-carboxylic acid]	–	–	> 64 µg/mL	> 64 µg/mL	16 to 32 µg/mL (≈ 23.7 to 47.5 µM)	> 64 µg/mL	> 64 µg/mL	> 64 µg/mL	MIC (N. gonorrhoeae WHO Q; [9]): > 64 µg/mL; MIC (N. gonorrhoeae WHO Z; [10]): > 64 µg/mL
CCN1CCN(C(=O)N[C@@H](C(=O)N[C@H]2Cc3cc(Cl)c(F)c(C(=O)O)c3OB2O)c2c(F)cc(O)c(O)c2Cl)C(=O)C1=O [Example 191, (R)-6-chloro-3-((R)-2-(2-chloro-6-fluoro-3,4-dihydroxyphenyl)-2-(4-ethyl-2,3-dioxopiperazine-1-carboxamido)acetamido)-7-fluoro-2-hydroxy-3,4-dihydro-2H-benzo[e][1,2]oxaborinine-8-carboxylic acid]	–	–	> 64 µg/mL	> 64 µg/mL	16 to 32 µg/mL (≈ 24.8 to 49.6 µM)	> 64 µg/mL	> 64 µg/mL	> 64 µg/mL	MIC (N. gonorrhoeae WHO Q; [9]): > 64 µg/mL; MIC (N. gonorrhoeae WHO Z; [10]): > 64 µg/mL
